Test results as given in ChEMBL document CHEMBL1201862, “PubChem BioAssay data set” (2004).
The source made the active and inactive calls.

Legend:
[1] = molecular target: T1, E3 ubiquitin-protein ligase XIAP (Homo sapiens, UniProt P98170); test: XIAP antagonists, biochemical, IAP family, fluorescence polarization (AID 1018); assay type: functional
[2] = molecular target: T1, E3 ubiquitin-protein ligase XIAP; test: Counter Screen using XIAP-Bir3 for Chemical Antagonists of Bir1/2 domains of IAP-family anti-apoptotic proteins. [Related pubchem assays (depositor defined):AID1018, AID1449, AID1514, AID1638, AID1749, AID1750, AID488957, AID488963]
[3] = test system: HEK293; test: cells; assay type: functional, cell-based; conditions: Homo sapiens
[4] = test system: H9c2; test: cells; assay type: functional, cell-based; conditions: Rattus norvegicus, H9c2, Myocardium;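 note: confirmatory concentration-response retest of ultra-high-throughput screening hits for modulation of myocardial damage; cell death induced by hydrogen peroxide oxidative stress; compound pretreatment for 60 min then peroxide exposure for 2 h; potency is for protecting the cells against peroxide damage rather than for killing them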
[5] = test system: HEK293; test: cells; assay type: functional, cell-based; conditions: Homo sapiens; remark: listed apart in the source
[6] = molecular target: Nucleotide-binding oligomerization domain-containing protein 2 (Homo sapiens, UniProt Q9HC29); test: NOD2 signaling inhibitors, cell-based, luminescence, uHTS, HEK293 (AID 1566); assay type: functional
[7] = test system: HEK293; test: NOD1 signaling inhibitors, primary screen, cell-based, luminescence, uHTS (AID 1578); assay type: functional; conditions: Homo sapiens
[8] = test system: HEK293; test: NOD2 signaling inhibitors in MDP-stimulated cells, cell-based, uHTS, luminescence (AID 2001); assay type: functional; conditions: Homo sapiens
[9] = test system: HEK293; test: cells; assay type: functional, cell-based; conditions: Homo sapiens; remark: listed apart in the source
[10] = molecular target: T2, Protein RecA (Mycobacterium tuberculosis, UniProt P9WHJ3); test: Fluorescence Cell-Free Homogeneous Dose Retest to Identify Inhibitors of RecA-Intein Splicing Activity. [Related pubchem assays (depositor defined):AID2097, AID2223, AID489010, AID492950]; assay type: functional
T2 sequence (P9WHJ3 whole entry): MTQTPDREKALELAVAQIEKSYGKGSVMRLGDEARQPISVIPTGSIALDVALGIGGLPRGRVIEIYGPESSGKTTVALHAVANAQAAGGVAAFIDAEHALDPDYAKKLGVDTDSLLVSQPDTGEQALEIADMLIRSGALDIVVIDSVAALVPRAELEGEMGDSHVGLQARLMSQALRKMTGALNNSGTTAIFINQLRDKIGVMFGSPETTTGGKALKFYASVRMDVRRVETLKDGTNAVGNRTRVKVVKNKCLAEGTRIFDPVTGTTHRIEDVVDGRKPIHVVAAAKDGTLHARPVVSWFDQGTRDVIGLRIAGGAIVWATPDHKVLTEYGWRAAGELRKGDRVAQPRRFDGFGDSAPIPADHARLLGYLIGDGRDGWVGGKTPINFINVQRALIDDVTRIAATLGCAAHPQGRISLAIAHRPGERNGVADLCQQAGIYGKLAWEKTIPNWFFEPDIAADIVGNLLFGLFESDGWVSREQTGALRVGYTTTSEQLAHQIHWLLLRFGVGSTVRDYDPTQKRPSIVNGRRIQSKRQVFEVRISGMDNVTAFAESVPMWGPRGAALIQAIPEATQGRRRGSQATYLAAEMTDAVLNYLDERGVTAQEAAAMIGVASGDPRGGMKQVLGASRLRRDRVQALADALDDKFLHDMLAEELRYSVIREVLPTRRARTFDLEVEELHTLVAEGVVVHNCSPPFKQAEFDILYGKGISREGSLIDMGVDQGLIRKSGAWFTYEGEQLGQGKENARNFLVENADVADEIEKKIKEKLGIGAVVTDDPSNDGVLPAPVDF

[11] = molecular target: T3, Microphthalmia-associated transcription factor (Homo sapiens, UniProt O75030); test: TRPM1 promoter luciferase signal decrease, dose response, MITF inhibitor project, cell-based, SK-MEL-5, cherry-picked, set 3 (AID 493073); assay type: functional
T3 sequence (O75030 whole entry): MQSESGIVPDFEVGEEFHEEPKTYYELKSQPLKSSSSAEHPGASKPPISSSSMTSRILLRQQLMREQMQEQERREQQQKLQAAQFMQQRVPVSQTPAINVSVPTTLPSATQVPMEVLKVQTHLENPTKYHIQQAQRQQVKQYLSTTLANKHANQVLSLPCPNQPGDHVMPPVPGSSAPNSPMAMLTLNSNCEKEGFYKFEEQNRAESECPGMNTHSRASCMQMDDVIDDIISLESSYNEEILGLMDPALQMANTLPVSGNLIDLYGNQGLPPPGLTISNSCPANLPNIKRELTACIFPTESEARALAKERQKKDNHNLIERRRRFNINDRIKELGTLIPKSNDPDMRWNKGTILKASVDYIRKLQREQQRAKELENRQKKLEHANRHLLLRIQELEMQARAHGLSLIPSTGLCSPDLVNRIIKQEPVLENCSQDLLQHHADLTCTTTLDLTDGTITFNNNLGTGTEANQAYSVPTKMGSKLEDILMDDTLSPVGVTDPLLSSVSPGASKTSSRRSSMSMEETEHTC

[12] = test system: BJ; test: cytotoxicity toward BJ-TERT-LT-ST fibroblasts, dose response, cell-based, RAS-independent, luminescence (AID 1935); assay type: functional; conditions: Homo sapiens;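 note: BJ fibroblasts immortalized with TERT plus LT and ST oncogenes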
[13] = test system: BJ; test: cytotoxicity toward BJ-TERT fibroblasts, dose response, cell-based, RAS-independent, luminescence (AID 1933); assay type: functional; conditions: Homo sapiens
[14] = molecular target: T4, Replicative DNA helicase DnaB (Mycobacterium tuberculosis, UniProt P9WMR3); test: DnaB intein splicing inhibitors, dose response, biochemical, cell-free fluorescence (AID 449749); assay type: functional
T4 sequence (P9WMR3 whole entry): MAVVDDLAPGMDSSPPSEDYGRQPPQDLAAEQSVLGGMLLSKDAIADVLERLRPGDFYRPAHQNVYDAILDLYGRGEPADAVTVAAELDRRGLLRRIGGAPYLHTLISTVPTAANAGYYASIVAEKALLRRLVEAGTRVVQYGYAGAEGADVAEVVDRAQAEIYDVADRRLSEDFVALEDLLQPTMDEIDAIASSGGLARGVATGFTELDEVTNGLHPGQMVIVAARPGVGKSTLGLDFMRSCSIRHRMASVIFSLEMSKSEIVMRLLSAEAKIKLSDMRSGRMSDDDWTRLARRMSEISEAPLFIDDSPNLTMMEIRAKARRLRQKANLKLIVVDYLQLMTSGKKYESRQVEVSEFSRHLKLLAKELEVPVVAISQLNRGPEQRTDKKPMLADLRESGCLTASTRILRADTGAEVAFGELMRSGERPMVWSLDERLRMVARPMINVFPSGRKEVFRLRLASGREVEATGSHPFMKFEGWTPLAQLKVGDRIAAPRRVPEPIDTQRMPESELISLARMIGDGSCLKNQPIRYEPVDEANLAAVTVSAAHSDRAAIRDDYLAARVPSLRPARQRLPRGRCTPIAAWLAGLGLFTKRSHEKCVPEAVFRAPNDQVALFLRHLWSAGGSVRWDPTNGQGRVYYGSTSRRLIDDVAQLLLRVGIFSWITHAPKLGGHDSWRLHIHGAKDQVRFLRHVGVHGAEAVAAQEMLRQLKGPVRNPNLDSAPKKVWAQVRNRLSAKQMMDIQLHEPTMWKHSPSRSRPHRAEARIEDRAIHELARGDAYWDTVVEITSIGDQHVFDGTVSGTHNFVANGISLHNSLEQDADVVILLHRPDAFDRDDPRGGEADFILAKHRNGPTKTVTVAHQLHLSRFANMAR

[15] = cytotoxicity toward DRD oncogenic fibroblasts, dose response, cell-based, non-viral oncogenic, luminescence (AID 1934); assay type: functional; conditions: Homo sapiens
[16] = test system: BJ; test: cells; assay type: functional, cell-based; conditions: Homo sapiens
[17] = molecular target: Troponin, cardiac muscle (Homo sapiens, UniProt P19429+P45379+P63316); test: Fluorescence-based biochemical high throughput dose response assay for activators of the calcium sensitivity of cardiac Regulated Thin Filaments (RTF). [Related pubchem assays (depositor defined):AID493008, AID493018, AID504382, AID504383]; assay type: protein-complex assay

| SMILES | IC50 [3] | IC50 [5] | EC50 [6] | EC50 [7] | IC50 [8] | IC50 [9] | further results |
| --- | --- | --- | --- | --- | --- | --- | --- |
| N#Cc1ccccc1CSc1nc2cc(Br)c[nH]c-2n1 |  |  |  |  |  |  | IC50 [1]: > 100 µM (not active); IC50 [2]: > 100 µM (inactive) |
| Cc1nc(N2CCN(c3ccccn3)CC2)c2c(C)c(C(=O)Nc3ccccc3F)sc2n1 | 14.3 µM (active) | 5.78 µM (active) | 3.56 µM (active) | 12.4 µM (active) | 5.23 µM (active) | > 20 µM (inactive) | IC50 [4]: > 79 µM (inactive) |
| COCCN(C(=O)CCl)C(C(=O)NC1CCCCC1)c1ccccc1C (stereo not drawn) | > 20 µM (inactive) | 6.54 µM (active) | > 20 µM (inactive) | 4.73 µM (active) | 6.74 µM (active) | 14.9 µM (active) | EC50 [10]: 1.28 µM (active); AC50 [11]: 17.8 µM (active); EC50 [12]: > 150 µM (inconclusive); EC50 [13]: 8.42 µM (active); AC50 [14]: 25 µM (active); EC50 [15]: 10.5 µM (active); EC50 [16]: 14.4 µM (active) |
| CC(=O)Nc1cc(C(=O)NCc2ccco2)ccc1Sc1ccc(F)cc1 |  |  |  |  |  |  | EC50 [17]: > 71.5 µM (inactive) |
